Measurements: patent publication EP1856102B1, “MEDICAMENTS FOR ALZHEIMER” (Tseti, Ioulia, priority 2005, dated 2006)
Marks after values point to notes of the source that are not given here.

Legend:
[1] = system: carrageenan-induced edema of the rat hind paw; test: Carrageenan-induced edema of the rat hind paw; format: in vivo, female Fischer-344 rats; conditions: 0.3mmol/kg i.p. immediately after carrageenan; paws weighed 3.5 h later; edema suppression in comparison to controls
Protocol: Edema was induced via i.d. injection of carrageenan (0.1 ml of a 2% w/v aqueous solution) into the right hind paw of female Fischer-344 rats (200-220g) (the left paw serving as control). The compounds under study were dissolved or suspended in water containing a few drops of Tween 80 and were administered i.p. (0.3mmol/kg) immediately after the carrageenan injection. The mice were euthanazed 3.5 h later, both hind paws were severed above the ankle joint and weighted separately. For each animal the swelling caused by the phlogistic was given as percentage of weight increase of right hind paw in comparison to the uninjected left hind paw, and from that, the percentage of edema suppression in comparison to controls was calculated. The parent anti-inflammatory acids (at the same molar concentrations) were used as reference compounds, in addition to the absolute control. […] Table 1: Effect of the test compounds on carrageenan-induced edema of the rat hind paw

[2] = system: FCA-induced experimental arthritis in rats; test: Adjuvant-induced disease (FCA-induced experimental arthritis); format: in vivo, female Fischer-344 rats; conditions: 0.3-0.6 mmol/kg i.p. once daily for 14 days; in comparison to non treated AID rats
Protocol: Adjuvant-induced disease (AID) was induced via i.d. injection of Freund's complete adjuvant (0.1 ml of FCA) in the foot pad of the right hind paw of female Fischer-344 rats. The compounds under study were dissolved or suspended in water containing a few drops of Tween 80 and were administered i.p. (0.3-0.6 mmol/kg) once daily for 14 days. In order to observe the progress of local inflammatory reaction, the change in swelling of paw with adjuvant treatment was evaluated by allocation of points (inflammatory score) on an arbitrary scale, while for the quantification of arthritis the arthritic score was recorded.
Table 2: Effect of the test compounds on FCA-induced experimental arthritis in rats

female Fischer-344 rats = conditions: s.c. once daily for 4 days, dose 84 µM/kg (Indomethacin, 1, 2, 3) or 1350 µM/kg (Naproxen, 4, 5); for Perforating ulcers (%): % of animals which developed perforating ulcers; for Mortality (%): (dead/total) x 100, recorded 24 h after last treatment
Protocol: Equimolar doses of the parent NSAIDs and the respective derivatives were administered s.c. once daily for 4 days to female Fischer-344 rats (160-180g). The used dose was ca LD50 of the parent NSAID. The incidence of perforating gastrointestinal ulcers, body weight change, melena and mortality were recorded 24 h after the last treatment. […] Table 3: Gastrointestinal toxicity of indomethacin, naproxen and some novel derivatives in rats

[3] = system: lipid peroxidation of hepatic microsomal fraction; test: In vitro lipid peroxidation (TBA reactive material); format: biochemical, Fischer-344 rats; conditions: at 45 min, 37°C; heat inactivated rat hepatic microsomal fraction, FeSO4/ascorbic acid
Protocol: Hepatic microsomal fraction from untreated Fischer-344 rats was prepared. The incubation mixture contained heat inactivated (90°C for 90 sec) hepatic microsomal fraction, corresponding to 2.5 mg protein/ml (fmal concentration) or 4 mmol/L fatty acid residues, ascorbic acid (0.2 mmol/L) in Tris-HCl/KCl buffer (50 mmol/L / 150mmol/L, pH 7.4) and various concentrations (1-0.05 mmol/L) of the test compounds dissolved in dimethylsulfoxide (DMSO). The reaction was started by the addition of a freshly prepared FeSO4 solution (10 µM/L) and the mixture was incubated at 37°C for 45 min. Aliquots (0.3mL) from the incubation mixture were taken at various time intervals. Lipid peroxidation was assessed spectrophotometrically (535 against 600 nm) by the determination of the TBA reactive material. Under the above experimental conditions, all compounds, as well as DMSO, were tested and found not to interfere with the assay. Each experiment was performed at least in triplicate.

[4] = Interaction with the stable free radical DPPH; conditions: DPPH 0.2 mmol/L in ethanol, room temperature, 45 min
Protocol: The test compounds were dissolved in absolute ethanol (analytical grade, iron content was less than 10^-3 (w/v), added to an equal volume of an ethanolic solution of DPPH (final concentration 0.2 mmol/L) at various concentrations (0.1 and 0.2 mmol/L) and kept at room temperature. Absorbance (517 nm) was recorded at 45 min. Each experiment was performed at least in triplicate. Table 5: % Interaction of the test compounds with the stable free radical DPPH

[5] = system: tyloxapol-induced hyperlipidemia; test: Tyloxapol-induced hyperlipidemia in rats; format: in vivo; conditions: 56µmol/kg i.p. once, 24 h later, tyloxapol 200 mg/kg i.p.; for % decrease LDL: plasma LDL-cholesterol; for % decrease TC: plasma total cholesterol; for % decrease TG: plasma triglyceride
Protocol: The hypocholesterolemic and hypolipidemic activity of the test compounds was assessed in vivo by the inhibition of tyloxapol-induced hyperlipidemia (200 mg/kg i.p.) in rats. The novel NSAID derivatives were administered (56µmol/kg, i.p., once) to hypercholesterolemic rats and 24 h later the plasma total cholesterol (TC), LDL and triglyceride (TG) concentrations were determined in blood taken from the aorta. […] Table 6: Effect of the test compounds on plasma total cholesterol, triglyceride and LDL-cholesterol levels of hyperlipidemic rats

SMILES | % Edema inhibition [1] | % Inhibition of experimental arthritis [2] | Perforating ulcers (%) (female Fischer-344 rats) | Mortality (%) (female Fischer-344 rats) | Body weight change (female Fischer-344 rats) | IC50 [3] | % Interaction with the stable free radical DPPH ([4]; compound 0.2mM) | % Interaction with the stable free radical DPPH ([4]; compound 0.1mm) | % decrease LDL [5] | % decrease TC [5] | % decrease TG [5]
COc1ccc2c(c1)c(CC(=O)N1CCCC1C(=O)NCCS)c(C)n2C(=O)c1ccc(Cl)cc1 (stereo not drawn) [Compound 1, 1-{2-[1-(4-Chloro-benzoyl)-5-methoxy-2-methyl-1-H-indol-3-yl]-acetyl}-pyrrolydine-2-carboxylic acid (2-mercapto-ethyl) amide] | 23% | 50% | 0% | 0% | +1.3 g/100 body weight | – | – | – | – | – | –
CCOC(=O)C(CS)NC(=O)C1CCCN1C(=O)Cc1c(C)n(C(=O)c2ccc(Cl)cc2)c2ccc(OC)cc12 (stereo not drawn) [Compound 2, 2-[(1-{2-[1-(4-Chloro-benzoyl)-5-methoxy-2-methyl-1-H-indol-3-yl]-acetyl}-pyrrolidine-2-carbonyl)-amino]-3-mercapto-propionic acid ethyl ester] | 20% | 75% | 0% | 0% | +3.9 g/100 body weight | 390 µM | 70% | 44% | – | – | –
COc1ccc2c(c1)c(CC(=O)N1CCCC1C(=O)Oc1ccc(C)cc1OC)c(C)n2C(=O)c1ccc(Cl)cc1 (stereo not drawn) [Compound 3, 1-{2-[1-(4-Chloro-benzoyl)-5-methoxy-2-methyl-1-H-indol-3-yl]-acetyl}-pyrrolidine-2-carboxylic acid-2-methoxy-4-methyl-phenyl ester] | – | – | 0% | 0% | +11.1 g/100 body weight | – | – | – | – | – | –
COc1ccc2cc(C(C)C(=O)N3CCCC3C(=O)NCCS)ccc2c1 (stereo not drawn) [Compound 4, 1-[2-(6-methoxy-naphthalen-2-yl)-propionyl]-pyrrolidine-2-carboxylic acid-(2-mercapto-ethyl) amide] | 30% | 30% | – | – | – | – | 78% | 57% | – | – | –
CCOC(=O)C(CS)NC(=O)C1CCCN1C(=O)C(C)c1ccc2cc(OC)ccc2c1 (stereo not drawn) [Compound 5] | 30% | 100% | 0% | 0% | +1.5 g/100 body weight | 320 µM | 85% | 65% | 55* % | 58** % | 68.7** %
COc1ccc2cc(C(C)C(=O)N3CCCC3C(=O)Oc3ccc(C)cc3OC)ccc2c1 (stereo not drawn) [Compound 6, 1-[2-(6-methoxy-naphthalen-2-yl)-propionyl]-pyrrolidine-2-carboxylic acid 2-methoxy-4-methyl phenyl ester] | 20% | – | – | – | – | – | – | – | – | – | –
COc1ccc2cc(C(C)C(=O)N3CC(O)CC3C(=O)NCCS)ccc2c1 (stereo not drawn) [Compound 7, 4-Hydroxy-1-[2-(6-methoxy-naphthalen-2-yl)-propionyl]-pyrrolidine-2-carboxylic acid-(2-mercapto-ethyl) amide] | 31% | – | – | – | – | – | 56% | 34% | 53.5 * % | 45* % | 51%
CCOC(=O)C(CS)NC(=O)C1CC(O)CN1C(=O)C(C)c1ccc2cc(OC)ccc2c1 (stereo not drawn) [Compound 8] | – | – | – | – | – | 500 µM | 75% | 55% | 56.5* % | 35.5% | 25%
CCOC(=O)C(CS)NC(=O)C1CCCCN1C(=O)C(C)c1ccc2cc(OC)ccc2c1 (stereo not drawn) [Compound 9] | – | – | – | – | – | 122 µM | 76% | 46% | 52* % | 40% | 21.3%
COc1ccc2c(c1)c(CC(=O)O)c(C)n2C(=O)c1ccc(Cl)cc1 [Indomethacin, reference compound] | 47.8% | – | – | 50% | – | – | – | – | – | – | –
COc1ccc2cc([C@H](C)C(=O)O)ccc2c1 [Naproxen, reference compound] | 45% | – | – | 50% | – | – | – | – | – | – | –
